Laboratory results: patent publication US8450332B2, “LIMK2 inhibitors, compositions comprising them, and methods of their use” (Lexicon Pharmaceuticals, Inc., priority 2008, dated 2013)

The molecules below were run against T1, LIMK2 (Homo sapiens, UniProt P53671) (assay: In vitro LIMK2 inhibition assay (33P incorporation into myelin basic protein flash plates)).
T1 construct: His tag (histidine-tagged; pFastBacHT vector); made in house; host or cells: Sf9 insect cells (BAC-to-BAC baculovirus system)
Type: biochemical
Procedure: Using the procedures described herein and methods known in the art, the additional compounds listed below in Table 1 were prepared. The LIMK2 IC50 data that is provided below for some of the compounds was determined using the assay described in Example 32.
An in vitro assay used to identify LIMK2 inhibitors was developed. The analytical readout was the incorporation of ^33P from ATP substrate into immobilized myelin basic protein coated flash plates (Perkin Elmer Biosciences), which were counted on a scintillation counter equipped with a plate reader (TopCount, Packard Bioscience, Meriden, Conn.). Using 384 well flat MBP flashplates, total assay volume was 50 μl. The HTS program utilized a Biomek FX for dilution.
For each assay, the ingredients and conditions were as follows: 200 ng of enzyme was incubated in assay buffer (1× assay buffer contains 30 mM HEPES (pH 8.0), 5 mM DTT, and 10 mM MgCl2), 10 μM ATP, 0.2 μCi [gamma-^33P]-ATP and 10 μM of potential inhibitory compound. The reaction was incubated at room temperature for 60 minutes, washed 3 times with 75 μl of stop/wash buffer (1× stop/was buffer contains 50 mM EDTA and 20 mM Tris (pH 7.4)), and then the plates were read on the scintillation counter. Different concentrations of staurosporine (400 nM, 200 nM, 100 nM and 50 nM; purchased from BIOMOL (Plymouth Meeting, Pa.)) were used as controls on each plate.

T1 sequence (P53671 whole entry): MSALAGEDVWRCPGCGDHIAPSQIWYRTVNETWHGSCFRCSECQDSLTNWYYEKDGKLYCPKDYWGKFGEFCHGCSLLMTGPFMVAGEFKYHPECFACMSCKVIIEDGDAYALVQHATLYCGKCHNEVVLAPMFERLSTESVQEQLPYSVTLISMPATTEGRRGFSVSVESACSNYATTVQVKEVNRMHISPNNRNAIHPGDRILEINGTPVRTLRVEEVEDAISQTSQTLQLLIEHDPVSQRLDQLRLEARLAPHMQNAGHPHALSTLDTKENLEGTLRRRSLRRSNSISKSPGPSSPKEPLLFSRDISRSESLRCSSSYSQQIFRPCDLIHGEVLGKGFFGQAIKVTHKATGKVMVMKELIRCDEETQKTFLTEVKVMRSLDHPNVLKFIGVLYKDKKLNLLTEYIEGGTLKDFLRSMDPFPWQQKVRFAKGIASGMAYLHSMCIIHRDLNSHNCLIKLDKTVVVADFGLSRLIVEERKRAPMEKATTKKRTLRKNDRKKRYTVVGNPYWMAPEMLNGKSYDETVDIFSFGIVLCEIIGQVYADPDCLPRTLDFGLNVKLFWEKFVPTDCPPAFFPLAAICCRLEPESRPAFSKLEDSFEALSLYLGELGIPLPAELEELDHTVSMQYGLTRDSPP

IC50 [nM] | Structure (SMILES)
< 250 | C=CCC1(C(=O)Nc2cccc(F)c2)CCN(c2ncnc3[nH]cc(C)c23)CC1 [4-allyl-N-(3-fluorophenyl)-1-(5-methyl-7H-pyrrolo[2,3-d]pyrimidin-4-yl)piperidine-4-carboxamide]
< 250 | C=CCC1(C(=O)Nc2cccc(Br)c2)CCN(c2ncnc3[nH]cc(C)c23)CC1 [4-allyl-N-(3-bromophenyl)-1-(5-methyl-7H-pyrrolo[2,3-d]pyrimidin-4-yl)piperidine-4-carboxamide]
< 250 | Cc1c[nH]c2ncnc(N3CCC(CN)(C(=O)Nc4cccc(Br)c4)CC3)c12 [4-(aminomethyl)-N-(3-bromophenyl)-1-(5-methyl-7H-pyrrolo[2,3-d]pyrimidin-4-yl)piperidine-4-carboxamide]
< 250 | Cc1c[nH]c2ncnc(N3CCC(C)(C(=O)Nc4ccc(F)c(Br)c4)CC3)c12 [N-(3-bromo-4-fluorophenyl)-4-methyl-1-(5-methyl-7H-pyrrolo[2,3-d]pyrimidin-4-yl)piperidine-4-carboxamide]
< 250 | Cc1c[nH]c2ncnc(N3CCC(C)(C(=O)Nc4cccc(Oc5ccc(F)cc5)c4)CC3)c12 [N-(3-(4-fluorophenoxy)phenyl)-4-methyl-1-(5-methyl-7H-pyrrolo[2,3-d]pyrimidin-4-yl)piperidine-4-carboxamide]
< 250 | Cc1c[nH]c2ncnc(N3CCC(C)(C(=O)Nc4cccc(OC(=O)N5CCOCC5)c4)CC3)c12 [3-(4-methyl-1-(5-methyl-7H-pyrrolo[2,3-d]pyrimidin-4-yl)piperidine-4-carboxamido)phenyl morpholine-4-carboxylate]
< 250 | COc1cccc(NC(=O)C2(CN)CCN(c3ncnc4[nH]cc(C)c34)CC2)c1 [4-(aminomethyl)-N-(3-methoxyphenyl)-1-(5-methyl-7H-pyrrolo[2,3-d]pyrimidin-4-yl)piperidine-4-carboxamide]
< 500 | Cc1c[nH]c2ncnc(N3CCC(CN)(C(=O)Nc4ccc5nc(N(C)C)oc5c4)CC3)c12 [4-(aminomethyl)-N-(2-(dimethylamino)benzo[d]oxazol-6-yl)-1-(5-methyl-7H-pyrrolo[2,3-d]pyrimidin-4-yl)piperidine-4-carboxamide]
< 500 | CNc1nc2ccc(NC(=O)C3(CN)CCN(c4ncnc5[nH]cc(C)c45)CC3)cc2o1 [4-(aminomethyl)-1-(5-methyl-7H-pyrrolo[2,3-d]pyrimidin-4-yl)-N-(2-(methylamino)benzo[d]oxazol-6-yl)piperidine-4-carboxamide]
< 250 | C=CCC1(C(=O)Nc2cccc(OC)c2)CCN(c2ncnc3[nH]cc(C)c23)CC1 [4-allyl-N-(3-methoxyphenyl)-1-(5-methyl-7H-pyrrolo[2,3-d]pyrimidin-4-yl)piperidine-4-carboxamide]
< 250 | Cc1c[nH]c2ncnc(N3CCC(CN)(C(=O)Nc4cccc(-c5cnco5)c4)CC3)c12 [4-(aminomethyl)-1-(5-methyl-7H-pyrrolo[2,3-d]pyrimidin-4-yl)-N-(3-(oxazol-5-yl)phenyl)piperidine-4-carboxamide]

More lines, now with the values behind:

Structure (SMILES) | IC50 [nM]
Cc1c[nH]c2ncnc(N3CCC(Cc4nnnn4Cc4ccccc4)(C(=O)Nc4cccc(OC(=O)N(C)C)c4)CC3)c12 [3-(4-((l-benzyl-1H-tetrazol-5-yl)methyl)-1-(5-methyl-7H-pyrrolo[2,3-d]pyrimidin-4-yl)piperidine-4-carboxamido)phenyl dimethylcarbamate] | < 250
Cc1c[nH]c2ncnc(N3CCC(CNC(=O)[C@@H](N)Cc4c[nH]cn4)(C(=O)Nc4cccc(OC(=O)N(C)C)c4)CC3)c12 [(S)-3-(4-((2-amino-3-(1H-imidazol-4-yl)propanamido)methyl)-1-(5-methyl-7H-pyrrolo[2,3-d]pyrimidin-4-yl)piperidine-4-carboxamido)phenyl dimethylcarbamate] | < 250
Cc1c[nH]c2ncnc(N3CCC(CNC(N)=O)(C(=O)Nc4cccc(OC(=O)N(C)C)c4)CC3)c12 [3-(1-(5-methyl-7H-pyrrolo[2,3-d]pyrimidin-4-yl)-4-(ureidomethyl)piperidine-4-carboxamido)phenyl dimethylcarbamate] | < 250
Cc1c[nH]c2ncnc(N3CCC(CNC(=O)C4(N)CC4)(C(=O)Nc4cccc(OC(=O)N(C)C)c4)CC3)c12 [3-(4-((1-aminocyclopropanecarboxamido)methyl)-1-(5-methyl-7H-pyrrolo[2,3-d]pyrimidin-4-yl)piperidine-4-carboxamido)phenyl dimethylcarbamate] | < 250
Cc1c[nH]c2ncnc(N3CCC(CN=[N+]=[N-])(C(=O)Nc4cccc(OC(=O)N(C)C)c4)CC3)c12 [3-(4-(azidomethyl)-1-(5-methyl-7H-pyrrolo[2,3-d]pyrimidin-4-yl)piperidine-4-carboxamido)phenyl dimethylcarbamate] | < 250
C=CCC1(C(=O)Nc2cccc(C(C)(C)C)c2)CCN(c2ncnc3[nH]cc(C)c23)CC1 [4-allyl-N-(3-tert-butylphenyl)-1-(5-methyl-7H-pyrrolo[2,3-d]pyrimidin-4-yl)piperidine-4-carboxamide] | < 250
Cc1c[nH]c2ncnc(N3CCC(C(=O)Nc4cccc(OC(=O)N(C)C)c4)(c4nn[nH]n4)CC3)c12 [3-(1-(5-methyl-7H-pyrrolo[2,3-d]pyrimidin-4-yl)-4-(2H-tetrazol-5-yl)piperidine-4-carboxamido)phenyl dimethylcarbamate] | < 250
Cc1c[nH]c2ncnc(N3CCC(CNC(=O)CN)(C(=O)Nc4cccc(OC(=O)N(C)C)c4)CC3)c12 [3-(4-((2-aminoacetamido)methyl)-1-(5-methyl-7H-pyrrolo[2,3-d]pyrimidin-4-yl)piperidine-4-carboxamido)phenyl dimethylcarbamate] | < 250
Cc1c[nH]c2ncnc(N3CCC(CNC(=O)[C@@H](N)CCCN)(C(=O)Nc4cccc(OC(=O)N(C)C)c4)CC3)c12 [(S)-3-(4-((2,5-diaminopentanamido)methyl)-1-(5-methyl-7H-pyrrolo[2,3-d]pyrimidin-4-yl)piperidine-4-carboxamido)phenyl dimethylcarbamate] | < 250
Cc1c[nH]c2ncnc(N3CCC(CN)(C(=O)Nc4cccc(C(=O)NC(C)C)c4)CC3)c12 [4-(aminomethyl)-N-(3-(isopropylcarbamoyl)phenyl)-1-(5-methyl-7H-pyrrolo[2,3-d]pyrimidin-4-yl)piperidine-4-carboxamide] | < 250
Cc1c[nH]c2ncnc(N3CCC(CNS(C)(=O)=O)(C(=O)Nc4cccc(OC(=O)N(C)C)c4)CC3)c12 [3-(1-(5-methyl-7H-pyrrolo[2,3-d]pyrimidin-4-yl)-4-(methylsulfonamidomethyl)piperidine-4-carboxamido)phenyl dimethylcarbamate] | < 250
CCN(CC)C(=O)Oc1cccc(NC(=O)C2(CN)CCN(c3ncnc4[nH]cc(C)c34)CC2)c1 [3-(4-(aminomethyl)-1-(5-methyl-7H-pyrrolo[2,3-d]pyrimidin-4-yl)piperidine-4-carboxamido)phenyl diethylcarbamate] | < 250
COC(=O)c1nnn(CC2(C(=O)Nc3cccc(OC(=O)N(C)C)c3)CCN(c3ncnc4[nH]cc(C)c34)CC2)c1C(=O)OC [dimethyl 1-((4-(3-(dimethylcarbamoyloxy)phenylcarbamoyl)-1-(5-methyl-7H-pyrrolo[2,3-d]pyrimidin-4-yl)piperidin-4-yl)methyl)-1H-1,2,3-triazole-4,5-dicarboxylate] | < 250
